Measurements: patent publication US11883387B2, “PqsR inverse agonists” (HELMHOLTZ-ZENTRUM FÜR INFEKTIONSFORSCHUNG GMBH, priority 2018, dated 2024)
Values after ≈ are worked out from the molar mass of the structure shown. Like-named read-outs stand apart in the source and are kept apart here.

How the values were obtained:
[1] = tested on: P. aeruginosa pyocyanin production; test: Pyocyanin assay; type: cell-based, P. aeruginosa PA14; conditions: Pseudomonas aeruginosa, PA14, 16 h, read-out: IC50-value towards pyocyanin production, PA14 in PPGAS medium, 16 h
How it was run: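 PA14 in PPGAS medium from OD600 0.02 grown 16 h at 37 °C, 200 rpm, with compounds. Pyocyanin extracted with chloroform, back-extracted into 0.2 M HCl, OD520 normalised to OD600.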

[2] = Kinetic Turbidimetric Aqueous Solubility at room temperature for 5 min; type: physicochemical; conditions: kinetic from dmso stock, PBS buffer, 2% DMSO
How it was run: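 Compound diluted in PBS across typically 0.4–200 μM (final DMSO 2%), held 5 min at room temperature. Turbidity read as absorbance at 620 nm against vehicle control. Four-parameter sigmoidal fit of normalized absorbances with AUC calculation gives Log S.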

PqsR [3] = biological target: T1, PqsR (Pseudomonas aeruginosa, UniProt Q9I4X0); test: E. coli based β-galactosidase reporter gene assay (PqsR inverse agonistic activity); type: cell-based; parameters: expressed in transfected cells; host or cells: Escherichia coli DH5α
T1 sequence (Q9I4X0 whole entry): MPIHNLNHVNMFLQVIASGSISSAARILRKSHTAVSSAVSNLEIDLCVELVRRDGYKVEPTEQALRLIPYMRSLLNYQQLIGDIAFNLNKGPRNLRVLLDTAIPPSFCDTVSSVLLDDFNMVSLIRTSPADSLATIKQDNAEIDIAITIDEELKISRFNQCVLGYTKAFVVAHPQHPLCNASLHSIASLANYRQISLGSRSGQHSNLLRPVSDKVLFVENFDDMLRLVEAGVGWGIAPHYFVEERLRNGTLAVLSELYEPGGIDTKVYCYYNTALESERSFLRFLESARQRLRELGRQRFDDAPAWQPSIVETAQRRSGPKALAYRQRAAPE
How it was run: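 E. coli DH5α carrying pEAL08-2 (tac-driven pqsR with pqsA-lacZ) was grown to OD600 0.2 and incubated with 0.001–10 μM compound plus 50 nM PQS for 2.5 h at 37 °C. β-Galactosidase activity was measured by ONPG conversion in permeabilized cells and normalized between the no-PQS and solvent controls. IC50 came from concentration variation.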

[4] = Turbidimetric Aqueous Solubility at 37° C. for 2 h; type: physicochemical; conditions: aqueous buffer, kinetic from dmso stock, 1% DMSO in buffer, estimated precipitation range
Protocol: Turbidimetric Aqueous Solubility at 37° C. for 2 h. Test compound was diluted in buffer to give a range of concentrations (typically 1, 3, 10, 30 and 100 μM, final DMSO concentration 1%) and incubated at 37° C. for 2 hr. Absorbance was measured at a wavelength of 620 nm and the solubility was estimated from the concentration of test compound that produces an increase in absorbance above the vehicle control (i.e., 1% DMSO in buffer). An estimated precipitation range (lower and upper bound) was provided as result.

[5] = tested on: production of signal molecules HHQ and PQS; conditions: at 15 μM; cited from earlier work
pyocyanin production = conditions: in cellulo; read-out: inhibition of virulence factor pyocyanin production IC50; cited from earlier work
PqsR [6] = biological target: T1, PqsR; parameters: expressed in transfected cells; host or cells: Escherichia coli DH5α; conditions: read-out: IC50 in E. coli reporter gene assay; cited from earlier work
PqsR [7] = biological target: T1, PqsR; parameters: host or cells: P. aeruginosa; conditions: read-out: IC50 in P. aeruginosa reporter gene assay; cited from earlier work
[8] = tested on: eDNA content of P. aeruginosa PA14 biofilm; test: Biofilm assay, eDNA content (propidium iodine); type: cell-based; conditions: Pseudomonas aeruginosa; PA14, propidium iodine fluorescence; read-out: IC50-value towards eDNA content of the biofilm
Protocol: (§1) Commonly used crystal violet (CV) assay procedures (PMID: 3905855, PMID: 10547784, PMID: 22488868) were adapted for determination of biofilm mass. For the cultivation of biofilm in 96 well plates, the protocol described by Frei et al. (PMID: 22488868) was slightly modified by replacement of medium and Pseudomonas strain used. The experiment was performed using P. aeruginosa PA14 strain and PPGAS medium. CV staining was used to detect compound effects on the overall biofilm biomass. Impact on eDNA was assessed by incubation of biofilm with propidium iodine solution (0.05 mg ml^−1) for 24 h and detection of specific florescence at 620 nm (excitation 544 nm) after a thorough washing step with 18 MΩ H2O. (PMID: 16430688)

[9] = tested on: P. aeruginosa PA14 biofilm; test: Biofilm assay, crystal violet staining (biofilm mass); type: cell-based; conditions: Pseudomonas aeruginosa, PA14, PPGAS medium, read-out: IC50-value towards biofilm formation
Protocol: as §1

HEK293 cells = test: Cytotoxicity (MTT) toward HEK293; type: cell-based; conditions: Homo sapiens, 48 h, upper class: or at solubility maximum, read-out: IC50-value towards HEK293
Protocol: (§2) To obtain information regarding the toxicity of our compounds, their impact on the viability of human cells was investigated. HepG2 and HEK293 cells (2×10^5 per well) were seeded in 24-well, flat-bottomed culture plates. 24 h after seeding the cells the incubation was started by the addition of compounds in a final DMSO concentration of 1%. The living cell mass was determined 48 h after treatment with compounds by adding 0.1 volumes of 3-(4,5-dimethylthiazol-2-yl)-2,5-diphenyltetrazolium bromide (MTT) solution (5 mg per mL sterile PBS) (Sigma, St. Louis, MO) to the wells. After incubating the cells for 30 min at 37° C. (atmosphere containing 5% CO2), MTT crystals were dissolved in a solution containing 10% SDS and 0.5% acetic acid in DMSO. The optical density (OD) of the samples was determined photometrically at 570 nm in a FLUOstar Omega plate reader (BMG labtech, Ortenberg, Germany). To obtain inhibition values for each sample, their ODs were related to those of DMSO controls.

HepG2 cells = test: Cytotoxicity (MTT) toward HepG2; type: cell-based; conditions: Homo sapiens, 48 h, upper class: or at solubility maximum, read-out: IC50-value towards HepG2
Protocol: as §2

[10] = Metabolic stability against human hepatic S9 fraction; type: in vitro ADME; conditions: pooled human liver S9 fraction; 1 μM compound, 1 mg/mL pooled human liver S9, phase I and II cofactors, 37° C.; read-out: half-life (t1/2) towards human hepatic S9 fraction
Protocol: For the evaluation of combined phase I and phase II metabolic stability, the compound (1 μM) was incubated with 1 mg/mL pooled human liver S9 fraction (BD Gentest), 2 mM NADPH regenerating system, 1 mM UDPGA, 10 mM MgCl2 and 0.1 mM PAPS at 37° C. for 0, 5, 15, 30 and 60 min. The metabolic stability of Testosterone (1 μM) and 7-hydroxycoumarin (1 μM) were determined in parallel to confirm the enzymatic activity of the S9 fraction. The incubation was stopped by precipitation of S9 enzymes with 2 volumes of cold acetonitrile containing internal standard (750 nM Diphenhydramine). Samples were stored on ice for 10 min and precipitated protein was removed by centrifugation (10 min, 4° C., 17,000 g). Concentration of the remaining test compound at the different time points was analyzed by LC-MS/MS (TSQ Quantum Access MAX, Thermo Fisher, Dreieich, Germany) and used to determine half-life (t/2).

Structure (SMILES) | IC50 [1] [nM] | solubility at 5 min ([2]; aqueous buffer) [µM] | IC50 (PqsR [3]) [nM] | solubility at 2 h [4] [µM] | reduction of HHQ production [5] [%] | reduction of PQS production [5] [%] | IC50 (pyocyanin production) [nM] | IC50 (PqsR [6]) [nM] | IC50 (PqsR [7]) [nM] | IC50 [8] [nM] | IC50 [9] [nM] | IC50 (HEK293 cells) [nM] | IC50 (HepG2 cells) [nM] | half-life at 1 μM [10] [h] | solubility at 5 min [2] [µM]
CC(C)Oc1ccc(-c2ncc(CNc3ccnc(C(F)(F)F)c3)cn2)cc1Cl [Compound 108, N-((2-(3-Chloro-4-isopropoxyphenyl)pyrimidin-5-yl)methyl)-2-(trifluoromethyl)pyridin-4-amine] | ≤ 250 | > 25 | ≤ 50 | 10 to 30 (≈ 4.23 to 12.7 µg/mL) | – | – | – | – | – | – | – | – | – | – | –
CCCCCCCc1[nH]c2ccc([N+](=O)[O-])cc2c(=O)c1C(N)=O [2-heptyl-6-nitro-4-oxo-1,4-dihydroquinoline-3-carboxamide] | – | – | – | – | 54 | 37 | 2000 | 35 | 400 | – | – | – | – | – | –
FC(F)(F)c1cc(NCc2cn(-c3ccc(Oc4ccccc4)cc3)nn2)ccn1 [Compound 001, N-((1-(4-Phenoxyphenyl)-1H-1,2,3-triazol-4-yl)methyl)-2-(trifluoromethyl) pyridin-4-amine] | ≤ 250 | – | ≤ 50 | – | – | – | – | – | – | < 500 | ≤ 500 | 25000 to 50000 | 25000 to 50000 | 0.683 to 1 | –
FC(F)(F)c1cc(SCc2nc3ccc(Oc4ccccc4)cc3o2)ccn1 [Compound 132, 6-Phenoxy-2-(((2-(trifluoromethyl)pyridin-4-yl)thio)methyl)benzo[d]oxazole] | 251 to 1000 | – | 51 to 250 | 10 to 30 (≈ 4.02 to 12.1 µg/mL) | – | – | – | – | – | – | – | 25000 to 50000 | – | > 1 | –
COc1ccc(-n2cc(CNc3ccnc(C(F)(F)F)c3)nn2)cc1Cl [Compound 017, N-((1-(3-chloro-4-methoxyphenyl)-1H-1,2,3-triazol-4-yl)methyl)-2-(trifluoromethyl)pyridin-4-amine] | 251 to 1000 | – | ≤ 50 | 10 to 30 (≈ 3.84 to 11.5 µg/mL) | – | – | – | – | – | – | ≤ 500 | – | – | 0.683 to 1 | > 50
